PMC9090415, “Discovery of small molecule inhibitors of Plasmodium falciparum apicoplast DNA polymerase” (Journal of Enzyme Inhibition and Medicinal Chemistry, 2022)

Target: P. falciparum apicoplast DNA polymerase (Pf-apPOL) (Plasmodium falciparum, UniProt Q8ILY1)
Assay: Fluorescence-based high-throughput DNA polymerase assay (molecular beacon), primary screen and dose-response
Type: biochemical
Conditions: for DNA Pol: 90 min, 10 µM; for % inhibition apPOL 180' 2.5 / % inhibition apPOL 180' 5 / % inhibition apPOL 180' 10 / % inhibition apPOL 180' 20 / % inhibition apPOL 180' 40 / % inhibition apPOL 180' 80: read at 180'
Method in brief: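 Single-point screening used 10 µM compound with 20 nM polymerase, 20 nM hairpin substrate and 6 µM dNTPs for 90 min at 25 °C. Confirmatory titrations (2.5–80 µM) followed fluorescence at three times, and IC50 was derived from a fit including a cooperativity term n.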

P. falciparum apicoplast DNA polymerase (Pf-apPOL), sequence (Q8ILY1 entry or part of it): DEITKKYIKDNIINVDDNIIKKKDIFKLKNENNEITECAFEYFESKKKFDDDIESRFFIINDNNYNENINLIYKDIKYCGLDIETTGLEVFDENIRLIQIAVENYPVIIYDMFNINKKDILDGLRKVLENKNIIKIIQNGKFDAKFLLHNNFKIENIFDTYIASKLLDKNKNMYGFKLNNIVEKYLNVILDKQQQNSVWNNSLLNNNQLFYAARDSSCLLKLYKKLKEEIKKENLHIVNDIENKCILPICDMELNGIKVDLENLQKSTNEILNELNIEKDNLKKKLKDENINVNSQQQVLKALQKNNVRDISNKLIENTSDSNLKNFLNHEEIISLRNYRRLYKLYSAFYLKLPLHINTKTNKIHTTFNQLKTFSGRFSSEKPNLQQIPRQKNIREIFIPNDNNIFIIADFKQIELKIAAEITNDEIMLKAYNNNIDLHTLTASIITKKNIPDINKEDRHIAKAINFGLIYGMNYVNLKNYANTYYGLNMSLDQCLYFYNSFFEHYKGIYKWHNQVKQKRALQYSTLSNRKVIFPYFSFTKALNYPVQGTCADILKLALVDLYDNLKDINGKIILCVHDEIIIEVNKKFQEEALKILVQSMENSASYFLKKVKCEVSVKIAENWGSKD

SMILES: O=C(c1ccccc1)N1CCc2c(nc3cc(-c4ccccc4)[nH]n3c2=O)C1 [Molecule 30, O=C(N1CCc2c(C1)nc1n(c2=O)[nH]c(c1)c1ccccc1)c1ccccc1]
- DNA Pol (186 hits, DNA Pol (screen value), unit not given): 51
- DNA Pol ('DNA Pol' (screen value), unit not given): 51
- % inhibition Apo pol 10' 2.5 (DRC-1, read at 10', concentration 2.5): 12.9086%
- % inhibition Apo pol 10' 5 (DRC-1, read at 10', concentration 5): 15.849%
- % inhibition Apo pol 10' 10 (DRC-1, read at 10', concentration 10): 54.0092%
- % inhibition Apo pol 10' 20 (DRC-1, read at 10', concentration 20): 76.4447%
- % inhibition Apo pol 10' 40 (DRC-1, read at 10', concentration 40): 86.2157%
- % inhibition Apo pol 10' 80 (DRC-1, read at 10', concentration 80): 78.4105%
- % inhibition Apol 90' 2.5 (DRC-1, read at 90', concentration 2.5): 4.897%
- % inhibition Apol 90' 5 (DRC-1, read at 90', concentration 5): 3.579%
- % inhibition Apol 90' 10 (DRC-1, read at 90', concentration 10): 37.2459%
- % inhibition Apol 90' 20 (DRC-1, read at 90', concentration 20): 61.0288%
- % inhibition Apol 90' 40 (DRC-1, read at 90', concentration 40): 75.6472%
- % inhibition Apol 90' 80 (DRC-1, read at 90', concentration 80): 72.6232%
- % inhibition apPOL 180' 2.5 (DRC-1, concentration 2.5): 0.553%
- % inhibition apPOL 180' 5 (DRC-1, concentration 5): -2.049%
- % inhibition apPOL 180' 10 (DRC-1, concentration 10): 22.4217%
- % inhibition apPOL 180' 20 (DRC-1, concentration 20): 42.2339%
- % inhibition apPOL 180' 40 (DRC-1, concentration 40): 59.6497%
- % inhibition apPOL 180' 80 (DRC-1, concentration 80): 57.0627%
- % inhibition Apo pol 5' (DRC-2, concentration 5): 18%
- % inhibition Apo pol 5' (DRC-2, concentration 10): 37%
- % inhibition Apo pol 5' (DRC-2, concentration 20): 50%
- % inhibition Apo pol 5' (DRC-2, concentration 80): 37%
- % inhibition Apol 40' (DRC-2, concentration 20): 61%
- % inhibition ApPOL 90' (DRC-2, concentration 5): 18%
- % inhibition ApPOL 90' (DRC-2, concentration 20): 60%
- % inhibition ApPOL 90' (DRC-2, concentration 40): 61%
- % inhibition ApPOL 90' (DRC-2, concentration 80): 60%
- % inhibition apPOL 180' (DRC-2, concentration 20): 50%
- % inhibition Apo pol 5' 2.5 (DRC-2, read at 5', concentration 2.5): 6.51%
- % inhibition Apo pol 5' 5 (DRC-2, read at 5', concentration 5): 18%
- % inhibition Apo pol 5' 10 (DRC-2, read at 5', concentration 10): 37%
- % inhibition Apo pol 5' 20 (DRC-2, read at 5', concentration 20): 50%
- % inhibition Apo pol 5' 40 (DRC-2, read at 5', concentration 40): 48%
- % inhibition Apo pol 5' 80 (DRC-2, read at 5', concentration 80): 37%
- % inhibition Apol 40' 2.5 (DRC-2, read at 40', concentration 2.5): 6.57%
- % inhibition Apol 40' 5 (DRC-2, read at 40', concentration 5): 20%
- % inhibition Apol 40' 10 (DRC-2, read at 40', concentration 10): 41%
- % inhibition Apol 40' 20 (DRC-2, read at 40', concentration 20): 61%
- % inhibition Apol 40' 40 (DRC-2, read at 40', concentration 40): 62%
- % inhibition Apol 40' 80 (DRC-2, read at 40', concentration 80): 57%
- % inhibition ApPOL 90' 2.5 (DRC-2, read at 90', concentration 2.5): 5%
- % inhibition ApPOL 90' 5 (DRC-2, read at 90', concentration 5): 18%
- % inhibition ApPOL 90' 10 (DRC-2, read at 90', concentration 10): 39%
- % inhibition ApPOL 90' 20 (DRC-2, read at 90', concentration 20): 60%
- % inhibition ApPOL 90' 40 (DRC-2, read at 90', concentration 40): 61%
- % inhibition ApPOL 90' 80 (DRC-2, read at 90', concentration 80): 60%
- % inhibition apPOL 180' 2.5 (DRC-2, concentration 2.5): 0.84%
- % inhibition apPOL 180' 5 (DRC-2, concentration 5): 10%
- % inhibition apPOL 180' 10 (DRC-2, concentration 10): 29%
- % inhibition apPOL 180' 20 (DRC-2, concentration 20): 50%
- % inhibition apPOL 180' 40 (DRC-2, concentration 40): 52%
- % inhibition apPOL 180' 80 (DRC-2, concentration 80): 54%

SMILES: O=C(O)CCS(=O)(=O)c1ccc(-c2ccc(S(=O)(=O)CCC(=O)O)cc2)cc1 [Molecule 32, OC(=O)CCS(=O)(=O)c1ccc(cc1)c1ccc(cc1)S(=O)(=O)CCC(=O)O]
- DNA Pol ("DNA Pol" of the 186 hits list (screen value)): 40
- % inhibition Apo pol 10' (DRC-1, concentration 2.5): 22.5031%
- % inhibition Apo pol 10' (DRC-1, concentration 5): 45.6696%
- % inhibition Apo pol 10' (DRC-1, concentration 10): 64.9587%
- % inhibition Apo pol 10' (DRC-1, concentration 20): 75.2971%
- % inhibition Apo pol 10' (DRC-1, concentration 40): 82.8671%
- % inhibition Apo pol 10' (DRC-1, concentration 80): 87.3536%
- % inhibition Apol 90' (DRC-1, concentration 2.5): 7.663%
- % inhibition Apol 90' (DRC-1, concentration 5): 20.8234%
- % inhibition Apol 90' (DRC-1, concentration 10): 43.1445%
- % inhibition Apol 90' (DRC-1, concentration 20): 59.5248%
- % inhibition Apol 90' (DRC-1, concentration 40): 71.1176%
- % inhibition Apol 90' (DRC-1, concentration 80): 79.0648%
- % inhibition apPOL 180' (DRC-1, concentration 2.5): -2.177%
- % inhibition apPOL 180' (DRC-1, concentration 5): 7.502%
- % inhibition apPOL 180' (DRC-1, concentration 10): 30.5046%
- % inhibition apPOL 180' (DRC-1, concentration 20): 50.8957%
- % inhibition apPOL 180' (DRC-1, concentration 40): 64.8259%
- % inhibition apPOL 180' (DRC-1, concentration 80): 73.8924%
- % inhibition Apo pol 5' (DRC-2, concentration 2.5): 15%
- % inhibition Apo pol 5' (DRC-2, concentration 5): 24%
- % inhibition Apo pol 5' (DRC-2, concentration 10): 39%
- % inhibition Apo pol 5' (DRC-2, concentration 20): 43%
- % inhibition Apo pol 5' (DRC-2, concentration 40): 49%
- % inhibition Apo pol 5' (DRC-2, concentration 80): 51%
- % inhibition Apol 40' (DRC-2, concentration 2.5): 10%
- % inhibition Apol 40' (DRC-2, concentration 5): 15%
- % inhibition Apol 40' (DRC-2, concentration 10): 31%
- % inhibition Apol 40' (DRC-2, concentration 20): 40%
- % inhibition Apol 40' (DRC-2, concentration 40): 53%
- % inhibition Apol 40' (DRC-2, concentration 80): 63%
- % inhibition ApPOL 90' (DRC-2, concentration 2.5): 5.57%
- % inhibition ApPOL 90' (DRC-2, concentration 5): 8%
- % inhibition ApPOL 90' (DRC-2, concentration 10): 26%
- % inhibition ApPOL 90' (DRC-2, concentration 20): 37%
- % inhibition ApPOL 90' (DRC-2, concentration 40): 52%
- % inhibition ApPOL 90' (DRC-2, concentration 80): 65%
- % inhibition apPOL 180' (DRC-2, concentration 2.5): -4.51%
- % inhibition apPOL 180' (DRC-2, concentration 5): -2.16%
- % inhibition apPOL 180' (DRC-2, concentration 10): 17%
- % inhibition apPOL 180' (DRC-2, concentration 20): 32%
- % inhibition apPOL 180' (DRC-2, concentration 40): 49%
- % inhibition apPOL 180' (DRC-2, concentration 80): 64%
- DNA Pol (primary screen value, DNA Pol): 40
